According to PMC12029179, “6-Chlorocoumarin Conjugates with Nucleobases and Nucleosides as Potent Anti-Hepatitis C Virus Agents” (Molecules, 2025):

Legend:
[1] = tested on: subgenomic HCV genotype 1b replicon; design: method as in PMID 30951311; details: cited from earlier work
HCV = tested on: HCV; design: method as in PMID 19303654; details: Huh-5-2 cells; cited from earlier work
Huh-5-2 cells = tested on: Huh-5-2 cells; design: method as in PMID 19303654; details: cited from earlier work
[2] = tested on: HCV genotype 1b subgenomic replicon; experiment: Anti-HCV assay in Huh 5-2 cells (luciferase replicon readout); format: cell-based, hepatitis C virus (HCV); details: for EC50: Huh-5-2, Huh 5-2 cells, luminescence
Text: (§1) An evaluation of the antiviral effects of the conjugated compounds was initially performed in Huh 5-2 cells utilizing the HCV genotype 1b subgenomic replicon system, based on previously reported procedures. By analyzing the dose–response curves, we calculated the concentration of each compound that inhibited the viral replication by 50% (EC50) and the concentration that reduced the host-cell metabolic activity by 50% (CC50). These values were then used to compute the selectivity index (SI = CC50/EC50), which serves as an indicator of a compound’s therapeutic window. Even if an EC50 was determined from the dose–response curve in the antiviral assay, the compounds that were evaluated may not qualify as promising hits. […] It is likely that the antiviral activity observed in the other compounds is due to their nonspecific or pleiotropic effects on the host cell.
Huh 5-2 cells were plated in white, tissue culture-treated 96-well view plates (Packard, Canberra, Canada) at a density of 5 × 10^3 cells per well, using complete Dulbecco’s Modified Eagle Medium (DMEM) containing 250 µg/mL G418. Following 24 h incubation at 37 °C with 5% CO2, the medium was discarded and serial 3-fold dilutions of the test compounds—prepared in complete DMEM lacking G418—were added to reach a final volume of 100 µL per well. After an additional 4-day incubation period under the same conditions, the medium was removed, and luciferase activity was assessed using the Steady-Glo luciferase assay kit (Promega, Leiden, The Netherlands). Luminescence was measured with a Luminoskan Ascent reader (Thermo, Vantaa, Finland). The EC50 value was determined as the compound concentration resulting in a 50% decrease in luciferase signal.

[3] = Host-cell metabolic activity (MTS assay) in Huh 5-2 cells; format: cell-based; details: human
Text: as §1

HCV subgenomic replicon = experiment: Anti-HCV assay in Huh 9-13 cells (real-time quantitative RT-PCR of replicon RNA); format: cell-based, hepatitis C virus (HCV); details: for % replicon RNA: normalized against no-drug control; for EC50: Hepatitis C virus
Experimental: Furthermore, the antiviral activity of three of the hits (i.e., 7a, 7b, and 18) was validated by evaluation of the dose–response effect of treatment with the compounds at the level of viral RNA replication in the Huh 9-13 assay system. The real-time quantitative RT-PCR readout was used.
Huh 9-13 cells were seeded at 5 × 10^3 cells per well into 96-well plates containing complete DMEM supplemented with 1000 µg/mL G418. […] After 4 days of incubation, the culture medium was removed, and the cell monolayers were washed once with phosphate-buffered saline (PBS). Cells were then lysed using 350 µL of RLT buffer (Qiagen, Venlo, The Netherlands) as per the manufacturer’s protocol, and the lysates were stored at −80 °C for future analysis. Upon completion of sample collection, RNA was extracted, and the samples were analyzed through quantitative real-time PCR to measure their HCV replicon content. The real-time RT-PCR data for all samples were calibrated against the “no-drug control”.
* After collection of all samples, RNA was extracted and samples were analyzed by quantitative real-
time PCR for their HCV replicon content. Real-time RT-PCR values of all assayed samples were
normalized against the “no-drug control”.

[4] = Host-cell metabolic activity in Huh 9-13 cells; format: cell-based; details: human
Huh 9-13 cells = experiment: Host-cell metabolic activity in Huh 9-13 cells; format: cell-based
Detroit 551 cells = experiment: Cell viability (MTS) assay in Detroit 551 cells; format: cell-based; details: Detroit 551 cells
Experimental: Detroit 551 cells, a human fibroblast cell line, are routinely employed to assess both acute and chronic toxicity in normal human cells. Evaluating the cytotoxicity of compounds in Detroit 551 cells helps to identify potential safety concerns early in drug development. The three promising leads, 7a, 7b, and 18, were tested in a Detroit 551 assay using the antineoplastic and antibiotic agent actinomycin D as a positive control.
Detroit 551 cells were harvested and seeded into a 96-well plate, then incubated at 37 °C for 24 h. A serial dilution of the test compound was prepared in eight three-fold concentrations (20,000 nM, 6667 nM, 2222 nM, 741 nM, 247 nM, 82 nM, 27 nM, and 9 nM), and 10 µL of each dilution was added to the corresponding wells. The plate was then returned to 37 °C for an additional 72 h of incubation. After this incubation, a 3-(4,5-dimethylthiazol-2-yl)-5-(3-carboxymethoxyphenyl)-2-(4-sulfophenyl)-2H-tetrazolium (MTS) assay medium (mixed in a 2:0.1 ratio of MTS–phenazine methyl sulfate (PMS)) was prepared. The plate was moved to a biological safety cabinet, and 21 µL of the MTS medium was added to each well. The plate was then incubated at 37 °C for 90 min before absorbance was measured at 490 nm on a Victor 2 plate reader (PerkinElmer, Inc., Waltham, MA, USA). Data were subsequently analyzed to assess cytotoxicity.

CC(C)OC(=O)[C@H](C)N[P@](=O)(OC[C@@]1(F)O[C@@H](n2ccc(=O)[nH]c2=O)[C@](C)(O)[C@@H]1O)Oc1ccccc1 [AL-335]
EC50 [1]: 0.07 µM

CCC[C@H](NC(=O)[C@@H]1[C@H]2CCC[C@H]2CN1C(=O)[C@@H](NC(=O)[C@@H](NC(=O)c1cnccn1)C1CCCCC1)C(C)(C)C)C(=O)C(=O)NC1CC1 [telaprevir]
EC50 (HCV): 1.1 µM
CC50 (Huh-5-2 cells): ≥ 24 µM

O=c1ccnc(SCc2cc3cc(Cl)ccc3oc2=O)[nH]1 [Compound 18, 2-[(6′-Chlorocoumarin-3′-yl)methylthio]uracil]
EC50 ([2]; Hepatitis C virus, primary screening, tested starting at 50 μg/mL): 48 µM
EC50 ([2]; Hepatitis C virus, secondary screen starting at 125 μg/mL, average of triplicate): 87 µM
inhibition at 125 µg/mL ([2]; Hepatitis C virus, Huh 5-2 cells, at 125 μg/mL): > 90%
SI (CC50/EC50) ([2]; Huh 5-2 cells, primary screening starting at 50 μg/mL): >3.2
SI (CC50/EC50) ([2]; Huh 5-2 cells, secondary screen starting at 125 μg/mL): >4.5
CC50 ([3]; primary screening, tested starting at 50 μg/mL): > 156 µM
CC50 ([3]; secondary screen starting at 125 μg/mL): > 390 µM
SI (CC50/EC50) (HCV subgenomic replicon): >41
Quantity (HCV replicon RNA, real-time PCR) (HCV subgenomic replicon; 0.977 µg/ml): 2.11E-03
% replicon RNA (HCV subgenomic replicon; 0.977 µg/ml): 66%
Quantity (HCV replicon RNA, real-time PCR) (HCV subgenomic replicon; 1.953 µg/ml): 2.06E-03
% replicon RNA (HCV subgenomic replicon; 1.953 µg/ml): 64%
Quantity (HCV replicon RNA, real-time PCR) (HCV subgenomic replicon; 3.906 µg/ml): 1.40E-03
% replicon RNA (HCV subgenomic replicon; 3.906 µg/ml): 44%
Quantity (HCV replicon RNA, real-time PCR) (HCV subgenomic replicon; 7.813 µg/ml): 1.12E-03
% replicon RNA (HCV subgenomic replicon; 7.813 µg/ml): 35%
Quantity (HCV replicon RNA, real-time PCR) (HCV subgenomic replicon; 15.625 µg/ml): 4.59E-04
% replicon RNA (HCV subgenomic replicon; 15.625 µg/ml): 14%
Quantity (HCV replicon RNA, real-time PCR) (HCV subgenomic replicon; 31.25 µg/ml): 2.30E-04
% replicon RNA (HCV subgenomic replicon; 31.25 µg/ml): 7%
Quantity (HCV replicon RNA, real-time PCR) (HCV subgenomic replicon; 62.50 µg/ml): 6.77E-05
% replicon RNA (HCV subgenomic replicon; 62.50 µg/ml): 2%
Quantity (HCV replicon RNA, real-time PCR) (HCV subgenomic replicon; 125 µg/ml): 4.20E-05
% replicon RNA (HCV subgenomic replicon; 125 µg/ml): 1%
EC50 (HCV subgenomic replicon; real-time quantitative RT-PCR readout): 9.4 µM
EC50 (HCV subgenomic replicon; supplement dose-response data): 3 µg/mL
CC50 ([4]; compound 18 tested starting at 125 µg/mL): > 390 µM
CC50 ([4]; supplement dose-response data): > 125 µg/mL
% cell metabolism (Huh 9-13 cells; 0.977 µg/ml): 103%
% cell metabolism (Huh 9-13 cells; 1.953 µg/ml): 92%
% cell metabolism (Huh 9-13 cells; 3.906 µg/ml): 109%
% cell metabolism (Huh 9-13 cells; 7.813 µg/ml): 101%
% cell metabolism (Huh 9-13 cells; 15.625 µg/ml): 98%
% cell metabolism (Huh 9-13 cells; 31.25 µg/ml): 103%
% cell metabolism (Huh 9-13 cells; 62.50 µg/ml): 99%
% cell metabolism (Huh 9-13 cells; 125 µg/ml): 104%
cell death at highest tested concentration (Detroit 551 cells; 20 μM): none of the three compounds induced cell death
IC50 (Detroit 551 cells; Homo sapiens, 72 h incubation, tested starting at 20.0 μM, read-out: IC50 (cell survival rate of 50%)): > 20 µM

CC(C)(C)NC(=O)N[C@H](C(=O)N1C[C@H]2[C@@H]([C@H]1C(=O)NC(CC1CCC1)C(=O)C(N)=O)C2(C)C)C(C)(C)C (stereo partly shown) [boceprevir]
EC50 (HCV): 0.93 µM
CC50 (Huh-5-2 cells): ≥ 7.4 µM
